Experiments:
MDA-MB-231 cells [1] = assay: Muse cell cycle assay; settings: at IC50, 72 h
MDA-MB-231 cells [2] = settings: at IC50 value, 24 h
caspase-8 = settings: 5 μM, 24 h, MDA-MB-231 cells
[3] = test system: ISHIKAWA human endometrial adenocarcinoma cells; assay: MTT cell viability, […]; type: cell-based; settings: 72 h, mean ± SD
Experimental: (§1) The six cell lines used in this work (MCF-7, MDA-MB-231, HeLa, […], MCF-10A and Hek-293) were purchased from American Type Culture Collection (ATCC, Manassas, VA, USA). MCF-7 human breast cancer cells, estrogen receptor (ER)-positive, were maintained in Dulbecco’s modified Eagle’s medium/nutrient mixture Ham F-12 (DMEM/F12), supplemented with 10% fetal bovine serum (FBS) and 100 U mL^−1 penicillin/streptomycin. MCF-10A human mammary epithelial cells, were cultured in DMEM/F12 medium, supplemented with 5% horse serum (HS, Thermo Fisher Scientific, Milan, Italy), 100 U mL^−1 penicillin/streptomycin, […] hydrocortisone, 20 ng mL^−1 human epidermal growth factor (hEGF), […] insulin, and […] cholera enterotoxin (Sigma–Aldrich, Milan, Italy). MDA-MB-231 human breast cancer cells, known as triple-negative cells (i.e., not overexpressing human epidermal growth factor receptor 2 (HER2), estrogen and progesterone receptors), were cultured in DMEM/F12 supplemented with 5% FBS, 1% L-glutamine and 100 U mL^−1 penicillin/streptomycin. HeLa human epithelial cervix carcinoma cells, estrogen receptor (ER)-negative, and […] human endometrial adenocarcinoma cells, estrogen receptor (ER)-positive, were maintained in minimum essential Eagle’s Medium (MEM), supplemented with 10% FBS, 1% L-glutamine, 100 U mL^−1 penicillin/streptomycin and 1% Non-Essential Amino Acids (NEAA). Hek-293 human embryonic kidney epithelial cells were cultured in DMEM high glucose (4.5 g L^−1), supplemented with 10% FBS, 1% L-glutamine and 100 U mL^–1 penicillin/streptomycin. Cells were maintained at 37 °C in a humidified atmosphere of 95% air and 5% CO2 and periodically screened for contamination.
(§2) Cell viability has been determined using the 3-(4,5-dimethylthiazol-2-y1)-2,5-diphenyltetrazolium bromide (MTT, Sigma–Aldrich, Milan, Italy) assay. Cells have been seeded on 48-well plates and grown in complete medium. Before being treated, cells have been starved in serum free medium for 24 h for allowing cell cycle synchronization. […] Data are representative of three independent experiments; standard deviations (SD) have been shown.

[4] = molecular target: T1, human topoisomerase I (hTopo I) (Homo sapiens, UniProt P11387); assay: Human topoisomerase I relaxation assay; type: biochemical; settings: 1 μM
T1 construct: purchased TopoGEN, Port Orange, FL, USA
T1 sequence (P11387 1-765): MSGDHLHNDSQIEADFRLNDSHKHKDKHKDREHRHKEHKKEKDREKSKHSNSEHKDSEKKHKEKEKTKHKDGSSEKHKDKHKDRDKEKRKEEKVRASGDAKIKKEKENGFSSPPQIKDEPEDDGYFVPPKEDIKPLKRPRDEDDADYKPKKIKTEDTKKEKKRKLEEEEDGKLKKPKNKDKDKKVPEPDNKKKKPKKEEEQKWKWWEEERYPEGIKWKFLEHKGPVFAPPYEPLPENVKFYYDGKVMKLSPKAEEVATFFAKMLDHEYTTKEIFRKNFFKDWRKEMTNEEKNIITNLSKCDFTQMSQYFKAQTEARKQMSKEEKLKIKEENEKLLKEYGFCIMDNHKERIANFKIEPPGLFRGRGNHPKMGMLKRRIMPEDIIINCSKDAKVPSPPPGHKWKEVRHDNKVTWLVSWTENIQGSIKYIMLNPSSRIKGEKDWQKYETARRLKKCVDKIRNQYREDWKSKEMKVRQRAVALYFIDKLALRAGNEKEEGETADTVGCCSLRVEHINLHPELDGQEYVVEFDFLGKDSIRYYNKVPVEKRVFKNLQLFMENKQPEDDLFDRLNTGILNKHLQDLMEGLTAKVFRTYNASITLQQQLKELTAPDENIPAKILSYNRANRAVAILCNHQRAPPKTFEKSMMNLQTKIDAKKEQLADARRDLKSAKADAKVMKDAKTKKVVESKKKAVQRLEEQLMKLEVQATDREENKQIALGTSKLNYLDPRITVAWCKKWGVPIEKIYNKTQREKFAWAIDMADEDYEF
Experimental: Topoisomerases are essential enzymes involved in DNA metabolism, because of their ability to cause temporary DNA strand breakage, and tightly involved, if overexpressed, in cancer development.
hTopo I relaxation assays have been performed in a final volume of […], as reported by Iacopetta et al., incubating […] of supercoiled plasmid pHOT1 in Tris-EDTA (TE) buffer (TopoGEN, Port Orange, FL, USA) with tested compounds and recombinant hTopo I (2 units) (TopoGEN, Port Orange, FL, USA) for 1h at 37 °C. The obtained solution has been loaded in a 1% agarose gel containing 1× Tris-acetate-EDTA (TAE) buffer without ethidium bromide (EB). Agarose gel has been stained using 1× TAE buffer with EB ([…]) for 30 min and after washed with distilled water for 15 min. At the end, it has been visualized by using a ultraviolet (UV) transilluminator. The experiment was performed in triplicate.
Figure 7 hTopoI assay.

[5] = test system: MCF-7 human breast cancer cells; assay: MTT cell viability, MCF-7; type: cell-based; settings: 72 h, mean ± SD
Experimental: as §1, §2

caspases 3/7 = assay: Caspase-Glo assay, caspases 3/7; settings: 5 μM, 24 h, MDA-MB-231 cells
MDA-MB-231 cells [6] = assay: Detection of intracellular ROS (DCF-DA); type: cell-based, human
Experimental: We used 2,7-dichlorofluorescin diacetate (DCF-DA) as a fluorometric probe for ROS detection and their production was examined under an inverted fluorescence microscope, as already reported.
Cells were grown on glass coverslips until the treatment with compound or menadione (used as positive control) (Sigma–Aldrich, Milan, Italy). Then, cells were incubated with 10 μM 2′-7′-Dichlorofluorescein diacetate (Sigma–Aldrich, Milan, Italy) for 40 min at 37 °C in a 5% CO2 incubator, as previously described. Then, DAPI (0.2 μg mL^−1) counterstain was performed for 10 min at room temperature, in the dark. Cells were then washed three times with cold PBS, adding one drop of mounting solution, then they were observed and imaged under a fluorescence microscope (Leica DM6000; 20× magnification) with excitation/emission wavelength maxima of 490 nm/515 nm (DCF) or 350 nm/460 nm (DAPI). Images are representative of three independent experiments.
Images were acquired at 20× magnification. […] Fields are representative of three separate experiments.

C[n+]1c(Cl)c(Cl)n(CC(O)c2ccccc2)[c]1[Au-][c]1n(CC(O)c2ccccc2)c(Cl)c(Cl)[n+]1C.[Cl][Au-][Cl] (racemic) [AuL7, bis-[4,5-dichloro-(N-methyl-N’(2-hydroxy-2-phenyl)ethyl-imidazole-2-ylidene)gold(I)]^+[dichloro-gold]^−]
increase of the percentage of cells in G2/M phase vs DMSO control (MDA-MB-231 cells [1]): 33.2%
increase of the percentage of cells in S phase vs DMSO control (MDA-MB-231 cells [1]): 16.1%
apoptosis (TUNEL) (MDA-MB-231 cells [2]): green nuclear fluorescence
caspase-8 activity (caspase-8): unchanged
IC50 [3]: 29.9 ± 0.9 µM
inhibition of hTopo I supercoil relaxing activity [4]: totally inhibition
IC50 [5]: 5.18 ± 0.4 µM
caspases 3/7 activity (caspases 3/7): clear increase
ROS production, fold lesser compared to Men-treated cells (MDA-MB-231 cells [6]; DCF fluorescence quantified by ImageJ): 1.5 fold
ROS production (DCF green fluorescence) (MDA-MB-231 cells [6]; fluorescence microscopy): significantly higher with respect to the vehicle-treated cells

Source: paper PMC7281280, “Is the Way to Fight Cancer Paved with Gold? Metal-Based Carbene Complexes with Multiple and Fascinating Biological Features” (Pharmaceuticals, 2020)
